Measured values: patent publication US10626144B2, “Peptide derivatives and uses thereof” (Nosopharm, priority 2014, dated 2020)
Numbered stars: 1 amine (or outer) side, 2 acyl side, 3 side chain; on linkers, the order of the positions; unused ones are H or OH. Square brackets hold non-standard residues; d marks the D form. Peptide text beside a SMILES is read from it. * marks the point of attachment. Pro(trans-4-F) = O=C(O)[C@@H]1C[C@@H](F)CN1; Abu(4,4,4-F3) = N[C@@H](CC(F)(F)F)C(=O)O; Phe(4-CN) = N#Cc1ccc(C[C@H](N)C(=O)O)cc1; Dab(3S-OH) = NC[C@H](O)[C@H](N)C(=O)O; X4 = N=C(N)NCC/C=C(/N[*:1])C(=O)[*:2]; ΔZArg = N=C(N)NCC/C=C(\N)C(=O)O; dOrn = NCCC[C@@H](N)C(=O)O; Dab = NCC[C@H](N)C(=O)O; NH(CH2)5NH2 = NCCCCCN*; NH(CH2)4NH2 = NCCCCN*

Assays:
Assay in all cases: MIC, broth microdilution (CLSI), reference strain
Settings in all cases: CAMHB
[1] = tested on: Escherichia coli ATCC 25922
[2] = tested on: Pseudomonas aeruginosa ATCC 27853
[3] = tested on: Staphylococcus aureus ATCC 13709
[4] = tested on: Acinetobacter baumannii ATCC 19606

SMILES | Ec: MIC Escherichia coli ATCC 25922 [1] | Pa: MIC Pseudomonas aeruginosa ATCC 27853 [2] | Sa: MIC Staphylococcus aureus ATCC 13709 [3] | Ab: MIC Acinetobacter baumannii ATCC 19606 [4]
N#Cc1ccc(C[C@H](NC(=O)[C@@H]2CCCN2C(=O)[C@@H](CCCN)NC(=O)CNC(=O)[C@H](CCN)NC(=O)[C@@H](NC(=O)[C@@H](N)CCCCN)[C@@H](O)CN)C(=O)N[C@@H](CCCCN)C(=O)N/C(=C\CCNC(=N)N)C(=O)O)cc1 [21.9] (H-K[Dab(3S-OH)][Dab]G[dOrn]P[Phe(4-CN)]K[ΔZArg]-OH) | ++ (≤8 μg/mL) | − (>32 μg/mL) | ++ (≤8 μg/mL) | − (>32 μg/mL)
COc1ccc(C[C@H](NC(=O)[C@@H]2CCCN2C(=O)[C@@H](CCCN)NC(=O)CNC(=O)[C@H](CCN)NC(=O)[C@@H](NC(=O)[C@@H](N)CCCCN)[C@@H](O)CN)C(=O)N[C@@H](CCCCN)C(=O)N/C(=C\CCNC(=N)N)C(=O)O)cc1 [21.10] (H-K[Dab(3S-OH)][Dab]G[dOrn]PY(Me)K[ΔZArg]-OH) | ++ (≤8 μg/mL) | − (>32 μg/mL) | ++ (≤8 μg/mL) | − (>32 μg/mL)
N=C(N)NCC/C=C(\NC(=O)[C@H](CCCCN)NC(=O)[C@H](CC(F)(F)F)NC(=O)[C@@H]1CCCN1C(=O)[C@@H](CCCN)NC(=O)CNC(=O)[C@H](CCN)NC(=O)[C@@H](NC(=O)[C@@H](N)CCCCN)[C@@H](O)CN)C(=O)O [21.11] (H-K[Dab(3S-OH)][Dab]G[dOrn]P[Abu(4,4,4-F3)]K[ΔZArg]-OH) | ++ (≤8 μg/mL) | − (>32 μg/mL) | ++ (≤8 μg/mL) | − (>32 μg/mL)
N=C(N)NCC/C=C(\NC(=O)[C@H](CCCCN)NC(=O)[C@H](Cc1c[nH]c2ccccc12)NC(=O)[C@@H]1CCCN1C(=O)[C@@H](CCCN)NC(=O)CNC(=O)[C@H](CCN)NC(=O)[C@@H](NC(=O)[C@@H](N)CCCCN)[C@@H](O)CN)C(=O)O [21.12] (H-K[Dab(3S-OH)][Dab]G[dOrn]PWK[ΔZArg]-OH) | ++ (≤8 μg/mL) | − (>32 μg/mL) | ++ (≤8 μg/mL) | − (>32 μg/mL)
N=C(N)NCC/C=C(\NC(=O)[C@H](CCCCN)NC(=O)[C@H](Cc1cnc[nH]1)NC(=O)[C@@H]1CCCN1C(=O)[C@@H](CCCN)NC(=O)CNC(=O)[C@@H](NC(=O)[C@@H](NC(=O)[C@@H](N)CCCCN)[C@@H](O)CN)[C@@H](O)CN)C(=O)N[C@H](CCCCN)C(=O)NCCCCN [22.1] (H-K[Dab(3S-OH)][Dab(3S-OH)]G[dOrn]PHK[ΔZArg][dK]-{NH(CH2)4NH2}) | ++ (≤8 μg/mL) | ++ (≤8 μg/mL) | ++ (≤8 μg/mL) | + (≤32 μg/mL)
N=C(N)NCC/C=C(\NC(=O)[C@H](CCCCN)NC(=O)[C@H](Cc1cnc[nH]1)NC(=O)[C@@H]1CCCN1C(=O)[C@@H](CCCN)NC(=O)CNC(=O)[C@@H](NC(=O)[C@@H](NC(=O)[C@@H](N)CCCCN)[C@@H](O)CN)[C@@H](O)CN)C(=O)NCCCCCN [22.2] (H-K[Dab(3S-OH)][Dab(3S-OH)]G[dOrn]PHK[ΔZArg]-{NH(CH2)5NH2}) | ++ (≤8 μg/mL) | + (≤32 μg/mL) | ++ (≤8 μg/mL) | − (>32 μg/mL)
N=C(N)NCC/C=C(\NC(=O)[C@H](CCCCN)NC(=O)[C@H](Cc1cnc[nH]1)NC(=O)[C@@H]1CCCN1C(=O)[C@@H](CCCN)NC(=O)CNC(=O)[C@@H](NC(=O)[C@@H](NC(=O)[C@H](N)CCCCN)[C@@H](O)CN)[C@@H](O)CN)C(=O)N[C@@H](CCCCN)C(=O)NCCCCN [22.6] (H-[dK][Dab(3S-OH)][Dab(3S-OH)]G[dOrn]PHK[ΔZArg]K-{NH(CH2)4NH2}) | + (≤32 μg/mL) | − (>32 μg/mL) | ++ (≤8 μg/mL) | − (>32 μg/mL)
N=C(N)NCC/C=C(/NC(=O)[C@H](CCCCN)NC(=O)[C@H](Cc1cnc[nH]1)NC(=O)[C@@H]1CCCN1C(=O)[C@@H](CCCN)NC(=O)CNC(=O)[C@@H](NC(=O)[C@@H](NC(=O)[C@@H](N)CCCCN)[C@@H](O)CN)[C@@H](O)CN)C(=O)N[C@@H](CCCCN)C(=O)NCCCCN [22.7] (H-K[Dab(3S-OH)][Dab(3S-OH)]G[dOrn]PHK[X4]K-{NH(CH2)4NH2}) | ++ (≤8 μg/mL) | ++ (≤8 μg/mL) | ++ (≤8 μg/mL) | + (≤32 μg/mL)
N=C(N)NCC/C=C(\NC(=O)[C@H](CCCCN)NC(=O)[C@H](Cc1cnc[nH]1)NC(=O)[C@@H]1CCCN1C(=O)[C@@H](CCCN)NC(=O)CNC(=O)[C@@H](NC(=O)[C@@H](NC(=O)[C@@H](N)CCCCN)[C@@H](O)CN)[C@@H](O)CN)C(=O)N[C@@H](CCCCN)C(N)=O [22.8] (H-K[Dab(3S-OH)][Dab(3S-OH)]G[dOrn]PHK[ΔZArg]K-NH2) | ++ (≤8 μg/mL) | ++ (≤8 μg/mL) | ++ (≤8 μg/mL) | + (≤32 μg/mL)
C[C@H](NC(=O)/C(=C/CCNC(=N)N)NC(=O)[C@H](CCCCN)NC(=O)[C@H](Cc1cnc[nH]1)NC(=O)[C@@H]1CCCN1C(=O)[C@@H](CCCN)NC(=O)CNC(=O)[C@@H](NC(=O)[C@@H](NC(=O)[C@@H](N)CCCCN)[C@@H](O)CN)[C@@H](O)CN)C(=O)NCCCCN [22.10] (H-K[Dab(3S-OH)][Dab(3S-OH)]G[dOrn]PHK[ΔZArg]A-{NH(CH2)4NH2}) | ++ (≤8 μg/mL) | + (≤32 μg/mL) | ++ (≤8 μg/mL) | − (>32 μg/mL)
N=C(N)NCC/C=C(\NC(=O)[C@@H](CCCCN)NC(=O)[C@H](Cc1cnc[nH]1)NC(=O)[C@@H]1CCCN1C(=O)[C@@H](CCCN)NC(=O)CNC(=O)[C@@H](NC(=O)[C@@H](NC(=O)[C@@H](N)CCCCN)[C@@H](O)CN)[C@@H](O)CN)C(=O)N[C@@H](CCCCN)C(=O)NCCCCN [22.11] (H-K[Dab(3S-OH)][Dab(3S-OH)]G[dOrn]PH[dK][ΔZArg]K-{NH(CH2)4NH2}) | ++ (≤8 μg/mL) | + (≤32 μg/mL) | ++ (≤8 μg/mL) | − (>32 μg/mL)
N=C(N)NCC/C=C(\NC(=O)[C@H](CCCCN)NC(=O)[C@H](Cc1c[nH]cn1)NC(=O)[C@@H]1CCCN1C(=O)[C@@H](CCCN)NC(=O)CNC(=O)[C@@H](NC(=O)[C@@H](NC(=O)[C@@H](N)CCCCN)[C@@H](O)CN)[C@@H](O)CN)C(=O)N[C@@H](CCCCN)C(=O)NCCCCCN [22.12] (H-K[Dab(3S-OH)][Dab(3S-OH)]G[dOrn]PHK[ΔZArg]K-{NH(CH2)5NH2}; C-terminus assumed) | ++ (≤8 μg/mL) | − (>32 μg/mL) | ++ (≤8 μg/mL) | − (>32 μg/mL)
N=C(N)NCC/C=C(\NC(=O)[C@H](CCCCN)NC(=O)[C@H](Cc1cnc[nH]1)NC(=O)[C@@H]1C[C@@H](F)CN1C(=O)[C@@H](CCCN)NC(=O)CNC(=O)[C@@H](NC(=O)[C@@H](NC(=O)[C@@H](N)CCCCN)[C@@H](O)CN)[C@@H](O)CN)C(=O)N[C@@H](CCCCN)C(=O)NCCCCN [22.13] (H-K[Dab(3S-OH)][Dab(3S-OH)]G[dOrn][Pro(trans-4-F)]HK[ΔZArg]K-{NH(CH2)4NH2}) | + (≤32 μg/mL) | ++ (≤8 μg/mL) | ++ (≤8 μg/mL) | − (>32 μg/mL)
C[C@H](NC(=O)/C(=C/CCNC(=N)N)NC(=O)[C@H](CCCCN)NC(=O)[C@H](Cc1cnc[nH]1)NC(=O)[C@@H]1CCCN1C(=O)[C@@H](CCCN)NC(=O)CNC(=O)[C@@H](NC(=O)[C@@H](NC(=O)[C@@H](N)CCCCN)[C@@H](O)CN)[C@@H](O)CN)C(N)=O [22.14] (H-K[Dab(3S-OH)][Dab(3S-OH)]G[dOrn]PHK[ΔZArg]A-NH2) | ++ (≤8 μg/mL) | − (>32 μg/mL) | ++ (≤8 μg/mL) | − (>32 μg/mL)
N=C(N)NCCC[C@H](NC(=O)[C@H](CCCCN)NC(=O)[C@H](Cc1cnc[nH]1)NC(=O)[C@@H]1CCCN1C(=O)[C@@H](CCCN)NC(=O)CNC(=O)[C@@H](NC(=O)[C@@H](NC(=O)[C@@H](N)CCCCN)[C@@H](O)CN)[C@@H](O)CN)C(=O)N[C@@H](CCCCN)C(=O)NCCCCN [22.17] (H-K[Dab(3S-OH)][Dab(3S-OH)]G[dOrn]PHKRK-{NH(CH2)4NH2}) | + (≤32 μg/mL) | − (>32 μg/mL) | ++ (≤8 μg/mL) | − (>32 μg/mL)
C[C@H](NC(=O)[C@@H](CCCN)NC(=O)CNC(=O)[C@@H](NC(=O)[C@@H](NC(=O)[C@@H](N)CCCCN)[C@@H](O)CN)[C@@H](O)CN)C(=O)N[C@@H](Cc1cnc[nH]1)C(=O)N[C@@H](CCCCN)C(=O)N/C(=C\CCNC(=N)N)C(=O)N[C@@H](CCCCN)C(=O)NCCCCN [22.18] (H-K[Dab(3S-OH)][Dab(3S-OH)]G[dOrn]AHK[ΔZArg]K-{NH(CH2)4NH2}) | + (≤32 μg/mL) | − (>32 μg/mL) | ++ (≤8 μg/mL) | − (>32 μg/mL)
N=C(N)NCC/C=C(\NC(=O)[C@H](CCCCN)NC(=O)[C@H](Cc1cnc[nH]1)NC(=O)[C@@H]1CCCN1C(=O)[C@@H](CCCN)NC(=O)CNC(=O)[C@@H](NC(=O)[C@@H](NC(=O)[C@@H](N)CCCCN)[C@@H](O)CN)[C@@H](O)CN)C(=O)O [22.20] (H-K[Dab(3S-OH)][Dab(3S-OH)]G[dOrn]PHK[ΔZArg]-OH) | + (≤32 μg/mL) | ++ (≤8 μg/mL) | ++ (≤8 μg/mL) | − (>32 μg/mL)
